Entries after “also recorded” stand apart in the source; their conditions may differ. Where two headings read alike, the source gives them in different places.
Legend:
Type in all cases: cell-based, human
[1] = tested on: CEM leukemia cells; experiment: Mitochondrial membrane potential (Δψm) assay, TMRM, FACS; conditions: for preserving mitochondrial membrane potential Δψm: 1, 2.5 or 5 μM
Experimental: Measurement of Mitochondrial Membrane Potential (Δψm)(FACS). For the determination of Δψm, CEM leukemia cells were pre-treated with or without the test compounds. The cells were treated with 5 mM DEM for 120 minutes, collected by centrifugation at 300×g for 3 minutes and then washed twice with phosphate buffered saline. The cells were re-suspended in HSSB buffer and incubated at 37° C. in the dark for 15 minutes with 250 nM TMRM (a cationic dye which accumulates within mitochondria in accordance with the Δψm Nernst potential). Cells were collected by centrifugation at 300×g for 3 minutes and then washed twice with phosphate buffered saline. The samples were analyzed immediately by flow cytometry using 488 nm excitation laser and the FL2-H channel. The results obtained were verified in three independent experiments. The protonophore FCCP (30 μM) was used to dissipate the chemiosmotic proton gradient (ΔμH^+) and served as a control for loss of Δψm. In each analysis, 10,000 events were recorded.

[2] = tested on: CEM cells; experiment: Trypan blue cell viability assay, DEM-treated cells; conditions: for EC50: CEM cells, pre-treatment 2 h, diethylmaleate 3 h, trypan blue exclusion, read-out: EC50 (effective concentration that prevents 50% of cell death); for maintaining cell viability (trypan blue exclusion): overnight incubation, then 5 mM DEM, 3 h
Experimental: Cell viability determined by trypan blue exclusion assay: This technique was used to assess the cytoprotective effects of the invention compounds in cultured cells pharmacologically treated to induce cell death by GSH depletion. DEM was used to deplete cellular GSH and induce oxidative stress. The viability of DEM-treated CEM cells was determined by their ability to exclude the dye trypan blue. Viable cells exclude trypan blue; whereas, non-viable cells take up the dye and stain blue. Briefly, CEM cells were grown in RPMI 1640 medium (GIBCO, Grand island, N.Y., USA) supplemented with 10% fetal calf serum, 2 mM glutamine (HyClone, South Logan, Utah, USA), 1% penicillin-streptomycin mix (Cellgro, Manassan, Va., USA). Cells were seeded at a density of 1×10^6 cells/mL and treated with different concentrations of the invention compounds. Cells were incubated at 37° C. in a humidified atmosphere of 5% CO2 in air for three hours with 5 mM DEM. Cell viability was determined by staining cells with 0.4% trypan blue using a hemacytometer. At least 500 cells were counted for each experimental group. At the time of assay, >95% of DEM-treated cells were trypan blue positive; whereas, in non-DEM treated control cell cultures >95% cells were viable. Cell viability was expressed as the percentage of control. Data are expressed as means±S.E.M (n=3).

[3] = tested on: CEM cells; experiment: Reactive oxygen species (ROS) assay, DCFH-DA, DEM-treated cells
[4] = pretreatment 0.5, 1 or 2.5 μM overnight, DEM

SMILES	maintaining mitochondrial membrane potential Δψm [1, 4]	EC50 [2] [nM]	EC50 ([2]; Homo sapiens, CCRF-CEM) [nM]	maintaining cell viability (trypan blue exclusion) [2]	protection against ROS production (DCF fluorescence) ([3]; compound 1 μM, 5 mM DEM)	protection against ROS production (DCF fluorescence) ([3]; compound 5 μM, 5 mM DEM)	suppression of ROS production (DCF fluorescence) ([3]; pretreatment 0.5, 1 or 5 μM, DEM)	preserving mitochondrial membrane potential Δψm ([1]; 4-hour pretreatment)	preserving mitochondrial membrane potential Δψm ([1]; 24-hour pretreatment)	maintaining mitochondrial membrane potential Δψm ([1]; FIG. 13, 4 or 24 hours pretreatment)	suppression of ROS (DCF fluorescence) ([3]; 1 μM, pretreatment 1, 3 or 6 hours, 5 mM DEM)	protection against ROS production (DCF fluorescence) ([3]; 5 μM, pretreatment 4 or 24 h)
Cc1nc(N(C)C)nc(CCCCCCCCCCO)c1O [Compound A, 2-N,N-dimethylamino-5-hydroxy-4-methyl-6-(10-hydroxydecyl)-pyrimidine]	clearly more effective in maintaining mitochondrial membrane potential; also recorded: very favorable properties	202 ± 23	203 ± 23	quite effective in maintaining cell viability following DEM treatment; also recorded: superior to idebenone in maintaining the viability of DEM-treated cells	complete protection	significantly more effective in blocking diethylmaleate-induced ROS production compared to idebenone or its reduced form (Idebenol); also recorded: protected the cells	more effective than idebenone at all tested concentrations; also recorded: more effective than idebenone in suppressing ROS in a dose-dependent fashion					
Cc1nc2c(c(CC[C@](C)(O)CCC[C@H](C)CCC[C@H](C)CCCC(C)C)c1O)CCN2C [Compound C, 4-((3R,7R,11R)-3-hydroxy-3,7,11,15-tetramethylhexadecyl)-1,6-dimethyl-2,3-dihydro-1H-pyrrolo[2,3-b]pyridine-5-ol]				both effective in maintaining cell viability following treatment with DEM, with compound C being somewhat more effective; also recorded: superiority of compound C		more effective in protecting glutathione depleted CEM cells than α-tocopherol; also recorded: protected the cells		more effective than tocopherol in preserving mitochondrial membrane potential	comparable to tocopherol	superior to tocopherol in maintaining mitochondrial membrane potential	clearly more effective than α-tocopherol in suppressing ROS	better protection against ROS production than α-tocopherol after a 4-hour preincubation
COC1=C(OC)C(=O)C(CCCCCCCCCCO)=C(C)C1=O [idebenone, reference compound]	less effective in this regard		765 ± 36			only limited effect						
Cc1c(C)c2c(c(C)c1O)CC[C@@](C)(CCC[C@H](C)CCC[C@H](C)CCCC(C)C)O2 [α-tocopherol, reference compound]				effective in maintaining cell viability following treatment with DEM		ineffective						

From patent publication US8952025B2, “Multifunctional radical quenchers and their uses” (Arizona Board of Regents, A Body Corporate of the State of …, priority 2010, dated 2015)
